These results are taken from patent US20050250793A1, “Preventives/remedies for hot flash” (priority 2002, published 2005).

Data set [1] can be described thus: Administration to premenopausal healthy females for 14 days. In kind it is in vivo, human. The following applies: 32 premenopausal healthy females (20 to 45 years old), 1 to 25 mg/day for 14 days. On the procedure: To 32 premenopausal healthy females (20 years old to 45 years old), 1 to 25 mg/day of the compound of Reference Example 7 was administered for 14 days. As a result, the serum estradiol concentration was reduced, but hot flash was not observed.

In data set [2] the target is T1, rat GnRH receptor (Rattus norvegicus, UniProt P30969).
T1 construct: Anterior pituitaries were removed from 40 Whister rats (8 weeks old, male); from tissue; host or cells: rat anterior pituitary membrane fraction
T1 sequence (P30969 1-327): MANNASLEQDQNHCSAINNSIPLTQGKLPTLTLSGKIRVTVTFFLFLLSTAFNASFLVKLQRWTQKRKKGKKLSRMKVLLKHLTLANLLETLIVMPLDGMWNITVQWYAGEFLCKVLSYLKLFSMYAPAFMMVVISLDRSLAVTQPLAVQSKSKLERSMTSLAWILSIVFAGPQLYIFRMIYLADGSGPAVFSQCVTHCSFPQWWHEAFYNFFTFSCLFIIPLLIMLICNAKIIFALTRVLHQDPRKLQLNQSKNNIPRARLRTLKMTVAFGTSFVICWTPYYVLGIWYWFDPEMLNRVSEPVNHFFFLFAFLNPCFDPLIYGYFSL
Put plainly: 125I-leuprorelin binding inhibition, rat anterior pituitary membrane fraction. The following applies: 1 μM compound, 4° C., 90 minutes, read-out: Binding inhibiting rate (%) Rat (1 μM).

Counter-ions that a name gives are not always drawn.

Consider `CONC(=O)Nc1ccc(-c2sc3c(c2CN(C)Cc2ccccc2)c(=O)n(-c2ccccc2)c(=O)n3Cc2c(F)cccc2F)cc1` [Reference Example 7, 5-(N-benzyl-N-methylaminomethyl)-1-(2,6-difluorobenzyl)-6-[4-(3-methoxyureido)phenyl]-3-phenylthieno[2,3-d]pyrimidine-2,4(1H, 3H)-dione], for which, in data set [1], the hot flash result was “not observed” and the serum estradiol concentration result was “reduced”.

Take `CONC(=O)Nc1ccc(-c2sc3c(c2CN(C)Cc2ccccc2)c(=O)n(-c2ccccc2)c(=O)n3Cc2c(F)cccc2F)cc1` [Reference Example 8, 5-(N-benzyl-N-methylaminomethyl)-1-(2,6-difluorobenzyl)-6-[4-(3-methoxyureido)phenyl]-3-phenylthieno[2,3-d]pyrimidine-2,4(1H, 3H)-dione hydrochloride]: the inhibition at 1 µM in data set [2] was determined as 27%.
